Measurements as given in patent publication US9844656B2, “Localization of agents at a target site with a composition and an energy source” (The Regents of the University of California, priority 2010, dated 2017).

Tests used:
[1] = test system: MET-1^fvb2 mammary carcinoma cells; assay: In vitro viability assay (MTT); format: cell-based, mouse; details: Met-1 cell line, 72 hours, read-out: IC50 (cytotoxicity)
Protocol: MET-1^fvb2 mammary carcinoma cells were obtained from the Alexander Borowsky Laboratory (UC Davis). MET-1 cells were plated at 2000 cells in 50 μl media per well in 96-well tissue culture plates in high glucose Dulbecco's Modified Eagle's Medium (DMEM, Invitrogen, Carlsbad, Calif.) supplemented with 1% PenStrep and 10% FBS. Cells were given six hours to attach to the plate surface. Treatments were added to each well in 100 μl media and experiments were performed in triplicate. Doxil®, a commercial product of ALZA corporation and manufactured by Centocor Ortho Biotech, was purchased from Cardinal Health Care (Dublin, Ohio) and the in vitro viability was compared with the liposomal copper-doxorubicin.
Plates were incubated for 72 hours at 37° C. in 5% CO2. 3-(4,5-dimethylthiazol-2-yl)-2,5-diphenyltetrazolium bromide (MTT, Invitrogen, Carlsbad, Calif.) reagent was added to media at a concentration of 0.5 mg/ml, and cells were incubated 2 hours at 37° C. in 5% CO2. […] Absorbance was measured using Tecan Infinite® M1000 Microplate Reader (San Jose, Calif.) at wavelength 570 nm (reference of 670 nm). Best-fit curves and IC50 values were calculated for concentration-response curves using GraphPad Prism software (GraphPad Inc., La Jolla, Calif.). Average IC50 values calculated from a minimum of three replicate experiments for each preparation.

[2] = Ex vivo imaging of doxorubicin accumulation in mouse heart; details: 40 min post administration
Protocol: FIG. 15. Ex vivo imaging of doxorubicin accumulation in mouse heart after liposomes were injected into the tail vein and allowed to circulate. Heart was removed after euthanasia to assess fluorescence. a) Doxorubicin fluorescence in hearts of mice injected with liposomal doxorubicin in lyso-temperature sensitive liposomes when Dox was loaded with ammonium sulfate method (ASDox-LTSLs) or loaded in liposomes containing 100 mM copper/270 mM TEA (CuDox-LTSLs), and loaded in temperature sensitive liposomes with 25% cholesterol containing 100 mM copper/270 mM TEA (CuDox-TSLs+25% chol) compared to those injected with free Dox. Animals were euthanized 40 min post administration of free or liposomal doxorubicin. Animals were perfused with saline and hearts were dissected prior to Maestro imaging. Statistical analyses were performed using one-way ANOVA followed by a Tukey Post Hoc test. *p<0.05, **p<0.01. Inset images of heart acquired by Maestro imaging system (white indicates higher doxorubicin fluorescence intensity).

NDL cells = assay: Intracellular trafficking and subcellular localization of doxorubicin; format: cell-based; details: post incubation at 37° C.
[3] = mouse, in vivo
Protocol: Images of circulating doxorubicin were acquired using the Maestro™ hyperspectral imaging system (Cambridge Research & Instrumentation, Inc., Woburn, Mass.). Animals were then euthanized and perfused with saline at 24 or 48 hours post systemic administration of the drug and the accumulation of doxorubicin or copper in tissues and organs were imaged and quantified ex vivo.
The Maestro™ in vivo Imaging System (Cambridge Research & Instrumentation, Inc., Woburn, Mass.) was utilized. The system is consisted of a light-tight and temperature-controlled imaging chamber, a tunable multi-spectral camera system, and a computer with pre-installed software which allows accurate spectral unmixing for increased spectral contrast and improved data quantification. Each mouse was placed in the imaging chamber at 37° C., systemically injected with either free or liposomal doxorubicin, and imaged using the blue Maestro filter set (500:10:720) with the exposure time of 1000 ms. The fluorescence signals were then unmixed from the auto-fluorescence in the image cube. A region of interest (ROI) was manually selected over the signal intensity. The area of the ROI was kept constant and the intensity was recorded as average signal (photons/s/cm^2) within a ROI. […]

SMILES: COc1cccc2c1C(=O)c1c(O)c3c(c(O)c1C2=O)C[C@@](O)(C(=O)CO)C[C@@H]3O[C@H]1C[C@H](N)[C@H](O)[C@H](C)O1.Cl [free doxorubicin, Doxorubicin hydrochloride]
- IC50 [1]: 20 ± 10 nM
- increase in cardiac accumulation of doxorubicin compared to liposomal copper-doxorubicin in temperature-sensitive liposomes [2]: 4 fold
- time at which the nucleus showed doxorubicin fluorescence (NDL cells): 15 min
- skin fluorescence trend [3]: decreasing with time
